Measurements taken from PMC6412051 (Scientific Reports, 2019).

Assays:
[1] = Formation/stability constant by continuous variation (Job's) method; assay type: physicochemical; settings: equimolar solutions in methanol, room temperature
Description: In Fig. 1, the extrapolated value at the point of cross section on the Job’s curve corresponds to the total absorbance of the complex, if the complex formation had been completed. Since the complex is dissociative in nature, the actual absorbance is somewhat lower than the absorbance […].
The colour of the solution changed from brown to orange. Wavelength of maximum absorbance was noted against a blank, which appeared at 296 nm. All the measurements were made at 296 nm.

[2] = oral administration; cited from earlier work

Compound	formation constant of the complex (log K) [1]	bioavailability [2]
[Ru(p-cymene)Cl(SPR)]	5.45	–
CCN1CCCC1CNC(=O)c1cc(S(N)(=O)=O)ccc1OC (centres unmarked) [SPR, Sulpiride]	–	approximately 30%
